In doi:10.1101/2021.10.07.463234v2 (biorxiv, 2021):
Where a name gives a salt, the structure may show the parent alone.

target: SARS-CoV-2 Mac1 (Severe acute respiratory syndrome coronavirus 2, UniProt P0DTD1); experiment: biochemical; settings: 100 µM; inhibitor

Q: With `CCCCc1nc(Cl)c(CO)n1Cc1ccc(-c2ccccc2-c2nnn[nH]2)cc1` [Losartan] as the molecule, how does the “%inhibition” value read?
A: 18.38%

Q: With `COc1ccc2[nH]c([S@@+]([O-])Cc3ncc(C)c(OC)c3C)nc2c1` [Esomeprazole sodium] as the molecule, how does the “%inhibition” value read?
A: 0%

Q: With `COc1cc2nc(N3CCN(C(=O)C4CCCO4)CC3)nc(N)c2cc1OC` (stereo not shown) [Terazosin HCl Dihydrate] as the molecule, how does the “%inhibition” value read?
A: 6.293%

Q: For `O=C(O)/C=C/c1ccc(Cn2ccnc2)cc1` [Ozagrel], which “%inhibition” value is on record?
A: 4.368%

Q: Which “%inhibition” value does the source give for `Cc1cc(NS(=O)(=O)c2ccc(N)cc2)no1` [Sulfamethoxazole] here?
A: 24.84%

same assay, conditions: read-out: %inhibition

Q: How did the inhibition at 100 µM turn out when `CCOc1ccccc1O[C@H](c1ccccc1)[C@H]1CNCCO1` (racemic) [Reboxetine mesylate] was run?
A: 0%

Q: Which inhibition at 100 µM does the source give for `COc1cccc(-c2c(C)n(Cc3c(F)cccc3C(F)(F)F)c(=O)n(C[C@H](NCCCC(=O)O)c3ccccc3)c2=O)c1F` [Elagolix Sodium] here?
A: 0%

Q: For `CCCCC(CC)COC(=O)C(C#N)=C(c1ccccc1)c1ccccc1` (stereo not shown) [Octocrylene], which inhibition at 100 µM is on record?
A: 0%

Q: Which inhibition at 100 µM does the source give for `C=CC(=O)N1CCC[C@@H](n2nc(-c3ccc(Oc4ccccc4)cc3)c3c(N)ncnc32)C1` [Ibrutinib (PCI-32765)] here?
A: 6.43%

Q: With `NCCCC(O)(P(=O)(O)O)P(=O)(O)O` [Alendronate sodium trihydrate] as the molecule, how does the inhibition at 100 µM read?
A: 1.69%

Q: Which inhibition at 100 µM does the source give for `C1CNCCN1` [Piperazine] here?
A: 5.65%

Q: For `CN(C)CCCN1c2ccccc2Sc2ccccc21` [Promazine hydrochloride], which inhibition at 100 µM is on record?
A: 0%

Q: Which inhibition at 100 µM does the source give for `CC(=O)N[C@@H](CCC(N)=O)C(=O)O` [Aceglutamide] here?
A: 0%

Q: With `CCC[C@@H]1C[C@@H](C(=O)N[C@@H]([C@H]2O[C@H](SC)[C@H](OP(=O)(O)O)[C@@H](O)[C@H]2O)[C@H](C)Cl)N(C)C1` [Clindamycin Phosphate] as the molecule, how does the inhibition at 100 µM read?
A: 0%

Q: How did the inhibition at 100 µM turn out when `Nc1c(CC(=O)O)cccc1C(=O)c1ccccc1` [Amfenac Sodium Monohydrate] was run?
A: 4.46%

Q: With `Nc1nc2[nH]cc(CCc3ccc(C(=O)N[C@@H](CCC(=O)O)C(=O)O)cc3)c2c(=O)[nH]1` [Pemetrexed Disodium Hydrate] as the molecule, how does the inhibition at 100 µM read?
A: 6.24%

Q: With `CC1(C)[C@@H]2CC[C@@]1(C)C(=O)C2` [(+)-Camphor] as the molecule, how does the inhibition at 100 µM read?
A: 0%

Q: Which inhibition at 100 µM does the source give for `COc1c(C)c2c(c(O)c1C/C=C(\C)CCC(=O)O)C(=O)OC2` [Mycophenolic acid] here?
A: 0%

Q: How did the inhibition at 100 µM turn out when `CCCN(CCC)C(=O)C1=Cc2ccc(-c3ccc(C(=O)N4CCCC4)cc3)cc2N=C(N)C1` [Motolimod (VTX-2337)] was run?
A: 0%

Q: For `COc1ccc(CNc2nc(N3CCC[C@H]3CO)ncc2C(=O)NCc2ncccn2)cc1Cl` [Avanafil], which inhibition at 100 µM is on record?
A: 0%

Q: How did the inhibition at 100 µM turn out when `C[C@H](NCc1ccc(OCc2cccc(F)c2)cc1)C(N)=O` [Safinamide] was run?
A: 15%

Q: With `CN(C)CCC(c1ccccc1)c1ccccn1` (stereo not shown) [Pheniramine Maleate] as the molecule, how does the inhibition at 100 µM read?
A: 9.19%

Q: With `O=C1c2c(O)ccc(O)c2C(=O)c2c(NCCNCCO)ccc(NCCNCCO)c21` [Mitoxantrone 2HCl] as the molecule, how does the inhibition at 100 µM read?
A: 74.8%

Q: How did the inhibition at 100 µM turn out when `COc1c2occc2cc2ccc(=O)oc12` [Methoxsalen] was run?
A: 14.7%

Q: Which inhibition at 100 µM does the source give for `COC(=O)N[C@@H](C)CNc1nccc(-c2cn(C(C)C)nc2-c2cc(Cl)cc(NS(C)(=O)=O)c2F)n1` [Encorafenib (LGX818)] here?
A: 10.8%

Q: `NC(=O)OCC(COC(N)=O)c1ccccc1` [Felbamate] was tested. Which inhibition at 100 µM did it give?
A: 22%

Q: `N#C[C@@H]1C[C@H]2C[C@H]2N1C(=O)[C@@H](N)[C@@]12C[C@@H]3C[C@@H](C[C@@](O)(C3)C1)C2` [Saxagliptin] was tested. Which inhibition at 100 µM did it give?
A: 12.8%

Q: For `CC1(C)[C@@H](OC(=O)CCC(=O)O)CC[C@]2(C)[C@H]3C(=O)C=C4[C@@H]5C[C@@](C)(C(=O)O)CC[C@]5(C)CC[C@@]4(C)[C@]3(C)CC[C@@H]12` [Carbenoxolone Sodium], which inhibition at 100 µM is on record?
A: 4.8%

Q: For `CC(C)C(=O)c1c(C(C)C)nn2ccccc12` [Ibudilast], which inhibition at 100 µM is on record?
A: 0%

Q: With `NS(=O)(=O)c1cc2c(cc1Cl)NC(C(Cl)Cl)NS2(=O)=O` (stereo not shown) [Trichlormethiazide] as the molecule, how does the inhibition at 100 µM read?
A: 0%

Q: `O=c1[nH]c(=O)n([C@H]2C[C@H](O)[C@@H](CO)O2)cc1/C=C/Br` [Brivudine] was tested. Which inhibition at 100 µM did it give?
A: 17.8%

Q: How did the inhibition at 100 µM turn out when `CC(C)[C@H](N)C(=O)OCC(CO)OCn1cnc2c(=O)nc(N)[nH]c21` (stereo partly shown) [Valganciclovir HCl] was run?
A: 0%

Q: `CC1(COc2ccc3c(c2)ncn3-c2ccc3cccc(N4CCC(N)CC4)c3n2)COC1` [Crenolanib (CP-868596)] was tested. Which inhibition at 100 µM did it give?
A: 0%

Q: For `COCC(=O)Nc1c(I)c(C(=O)NCC(O)CO)c(I)c(C(=O)N(C)CC(O)CO)c1I` (mixture of isomers) [Iopromide], which inhibition at 100 µM is on record?
A: 0%

Q: `CCCCc1oc2ccc(NS(C)(=O)=O)cc2c1C(=O)c1ccc(OCCCN(CCCC)CCCC)cc1` [Dronedarone HCl] was tested. Which inhibition at 100 µM did it give?
A: 0%

Q: `O[C@@H](c1cc(C(F)(F)F)nc2c(C(F)(F)F)cccc12)[C@H]1CCCCN1` [Mefloquine HCl] was tested. Which inhibition at 100 µM did it give?
A: 0%

Q: Which inhibition at 100 µM does the source give for `CC1=C(C(=O)OC(C)C)C(c2cccc([N+](=O)[O-])c2)C(C(=O)OC2CN(C(c3ccccc3)c3ccccc3)C2)=C(N)N1` (stereo not shown) [Azelnidipine] here?
A: 12.9%

Q: Which inhibition at 100 µM does the source give for `Cc1c(OCC(F)(F)F)ccnc1C[S+]([O-])c1nc2ccccc2[nH]1` (stereo not shown) [Lansoprazole] here?
A: 4.45%

Q: Which inhibition at 100 µM does the source give for `O=C(c1ccc(F)c(F)c1Nc1ccc(I)cc1F)N1CC(O)([C@@H]2CCCCN2)C1` [Cobimetinib (GDC-0973, RG7420)] here?
A: 5.28%

Q: With `CC[N+](C)(CC)CCOC(=O)C(O)(c1ccccc1)c1ccccc1` [Methylbenactyzine Bromide] as the molecule, how does the inhibition at 100 µM read?
A: 9.38%

Q: Which inhibition at 100 µM does the source give for `NC(=NCCCCCCN=C(N)/N=C(\N)Nc1ccc(Cl)cc1)/N=C(\N)Nc1ccc(Cl)cc1` [Chlorhexidine] here?
A: 10%

Q: Which inhibition at 100 µM does the source give for `C[C@]1(COc2ccc(N3CCC(Oc4ccc(OC(F)(F)F)cc4)CC3)cc2)Cn2cc([N+](=O)[O-])nc2O1` [Delamanid] here?
A: 22.1%

Q: With `CN(C)c1nc(N(C)C)nc(N(C)C)n1` [Altretamine] as the molecule, how does the inhibition at 100 µM read?
A: 19.5%

Q: With `CC(=O)O[C@]1(C(C)=O)CC[C@H]2[C@@H]3C=C(Cl)C4=CC(=O)[C@@H]5C[C@@H]5[C@]4(C)[C@H]3CC[C@@]21C` [Cyproterone Acetate] as the molecule, how does the inhibition at 100 µM read?
A: 0%

Q: `C=C[C@]1(C)C[C@@H](OC(=O)CSC(C)(C)CNC(=O)[C@H](N)C(C)C)[C@]2(C)[C@H](C)CC[C@]3(CCC(=O)[C@H]32)[C@@H](C)[C@@H]1O` [Valnemulin HCl] was tested. Which inhibition at 100 µM did it give?
A: 23.1%

Q: With `CCOC(=O)[C@H](CCc1ccccc1)N[C@@H](C)C(=O)N1Cc2cc(OC)c(OC)cc2C[C@H]1C(=O)O` [Moexipril HCl] as the molecule, how does the inhibition at 100 µM read?
A: 0%

Q: `CC[C@]12CCCN3CCc4c(n(c5ccccc45)[C@@](O)(C(=O)OC)C1)[C@@H]32` [Vincamine] was tested. Which inhibition at 100 µM did it give?
A: 13.7%

Q: For `CCC1(c2cccc(O)c2)CCCCN(C)C1` (stereo not shown) [Meptazinol HCl], which inhibition at 100 µM is on record?
A: 0%

Q: For `Cc1cc(Nc2cc(CN3CCOCC3)c3nc(C)c(Cc4ccc(Cl)cc4F)n3n2)n[nH]1` [Gandotinib (LY2784544)], which inhibition at 100 µM is on record?
A: 0%

Q: How did the inhibition at 100 µM turn out when `CS(=O)(=O)c1ccc([C@@H](O)[C@@H](CO)NC(=O)C(Cl)Cl)cc1` [Thiamphenicol] was run?
A: 13.4%

Q: `CO[C@@]12[C@H](COC(N)=O)C3=C(C(=O)C(C)=C(N)C3=O)N1C[C@@H]1N[C@@H]12` [Mitomycin C] was tested. Which inhibition at 100 µM did it give?
A: 10.1%

Q: For `O=C(O)COCCN1CCN([C@H](c2ccccc2)c2ccc(Cl)cc2)CC1` [Levocetirizine Dihydrochloride], which inhibition at 100 µM is on record?
A: 7.84%
